Laboratory results from US20080145313A1, “Compositions and Methods for the Treatment and Prevention of Neoplastic Disorders” (Genesis Research & Development Corporation Limited, priority 2006, published 2008).

System: MCF-7 cells
Test: Growth inhibition of siRNA-transfected MCF-7 cells, SYBR Green I DNA content
Type: cell-based, human
Settings: 10 nM siRNA; standardized against control siRNA
Protocol: A549 cells (human lung cancer cell line; ATCC No. CCL-185), SK-MeI-5 cells (human melanoma cell line; ATCC No. HTB-70), MCF-7 cells (human adenocarcinoma cell line; ATCC No. HTB-22), HCT-116 cells (colorectal carcinoma; ATCC CCL-247) and HCT-116 p53 null cells (derived from ATCC No. CCL-247; Bunz et al., Science 282:1497-1501, 1998) were cultured in RPMI 1640 medium with 10% v/v heat-inactivated fetal calf serum (FCS). Cells were seeded at a density of 5×10^4 cells/cm^2 in multi-well tissue culture plates. […] The cellular DNA content was measured using a SYBR Green I-based fluorometric assay at 24, 48, 72 and 96 hours after transfection (120 hours for the MCF-7 cells), as follows. […]
The following day, cell lysates were mixed thoroughly, and DNA fluorescence was measured with a Wallac Victor^2 plate reader (Turku, Finland) set at an excitation frequency of 485 nm and measuring emission at 535 nm.
siRNA-mediated RNAi was also determined on a panel of different cell lines. A549, SK-MeI-5, wt HCT-116, HCT-116−/−p53 and MCF-7 cells were transfected with 10 nM siRNAs targeting YBX-1 and growth inhibition determined as described above. […]

## SEQ ID NO: 4982: siRNA targeting YBX1 (chain 1 TTTGCTGGTAATTGCGTGGAGGACC; chain 2 UUUGCUGGUAAUUGCGUGGAGGACC; chemistry not given here; one strand in two spellings)
  growth inhibition, MCF7 cells: ++ (At least 50% inhibition)
